Reference: patent US20220135591A1, “HETEROCYCLIC COMPOUNDS AS INHIBITORS OF MONOACYLGLYCEROL LIPASE (MAGL)” (Hoffmann-La Roche Inc., priority 2019, published 2022)

Molecular target: T1, MAGL (recombinant wild-type) (Homo sapiens, UniProt Q99685)
T1 sequence (Q99685 1-303): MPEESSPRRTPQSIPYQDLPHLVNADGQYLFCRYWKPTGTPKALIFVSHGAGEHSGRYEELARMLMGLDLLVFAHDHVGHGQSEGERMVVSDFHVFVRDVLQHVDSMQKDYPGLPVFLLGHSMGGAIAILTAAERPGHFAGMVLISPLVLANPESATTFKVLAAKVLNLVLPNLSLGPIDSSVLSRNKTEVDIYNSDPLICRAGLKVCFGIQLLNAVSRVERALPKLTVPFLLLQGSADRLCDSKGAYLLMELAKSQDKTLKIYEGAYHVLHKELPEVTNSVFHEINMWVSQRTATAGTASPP
Test: 4-NPA assay: MAGL inhibitory activity by hydrolysis of 4-nitrophenylacetate, absorbance at 405 nm
Format: biochemical
Conditions: 4-NPA assay (values without footnote [b])
In short: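 Final assay: 1 nM MAGL and 300 μM 4-nitrophenylacetate in 50 mM Tris, 1 mM EDTA, at RT. Compounds (25 μM–1.7 nM, 3-fold steps) were preincubated 15 min with enzyme. A405 was read 5 min after substrate addition and again after 80 min; activity was taken as the difference between reads.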

Row | Compound | IC50 [nM]
1 | CC(OC1CN(c2ccc(C(=O)N3CCN(c4nc5ncccc5o4)CC3)cc2)C1)C(F)(F)F (stereo not shown) [Example 193, (4-(oxazolo[4,5-b]pyridin-2-yl)piperazin-1-yl)(4-(3-((1,1,1-trifluoropropan-2-yl)oxy)azetidin-1-yl)phenyl)methanone] | 355
2 | Cc1ccc2oc(N3CCN(C(=O)c4ccc(N5CC6(CCCO6)C5)cc4)CC3)nc2n1 [Example 194, (4-(5-oxa-2-azaspiro[3.4]octan-2-yl)phenyl)(4-(5-methyloxazolo[4,5-b]pyridin-2-yl)piperazin-1-yl)methanone] | 486
3 | Cc1ccc2oc(N3CCN(C(=O)c4ccc(N5CC(OC(C)C(F)(F)F)C5)cc4)CC3)nc2n1 (stereo not shown) [Example 195, (4-(5-methyloxazolo[4,5-b]pyridin-2-yl)piperazin-1-yl)(4-(3-((1,1,1-trifluoropropan-2-yl)oxy)azetidin-1-yl)phenyl)methanone] | 39
4 | O=C(c1ccc(N2CC(Oc3ccccc3)C2)cc1)N1CCN(c2nc3ncccc3o2)CC1 [Example 196, (4-(oxazolo[4,5-b]pyridin-2-yl)piperazin-1-yl)(4-(3-phenoxyazetidin-1-yl)phenyl)methanone] | 441
5 | COc1ccc2oc(N3CCN(C(=O)c4ccc(-c5noc(C(C)(C)C)n5)cc4)CC3)nc2n1 [Example 197, (4-(5-(tert-butyl)-1,2,4-oxadiazol-3-yl)phenyl)(4-(5-methoxyoxazolo[4,5-b]pyridin-2-yl)piperazin-1-yl)methanone] | 471
6 | Cc1ccc2oc(N3CCN(C(=O)c4ccc(N5CC(Oc6ccccc6)C5)cc4)CC3)nc2n1 [Example 198, (4-(5-methyloxazolo[4,5-b]pyridin-2-yl)piperazin-1-yl)(4-(3-phenoxyazetidin-1-yl)phenyl)methanone] | 46
7 | Cc1ccc2oc(N3CCN(C(=O)c4ccc(OCc5cccc(Cl)c5)c(-c5ncc[nH]5)c4)CC3)nc2n1 [Example 199, [4-[(3-chlorophenyl)methoxy]-3-(1H-imidazol-2-yl)phenyl]-[4-(5-methyl-[1,3]oxazolo[4,5-b]pyridin-2-yl)piperazin-1-yl]methanone] | 625
8 | Cc1ccc2oc(N3CCN(C(=O)c4ccc(N5CC(O[C@@H](C)C(F)(F)F)C5)cc4)CC3)nc2n1 [Example 200, (S)-(4-(5-methyloxazolo[4,5-b]pyridin-2-yl)piperazin-1-yl)(4-(3-((1,1,1-trifluoropropan-2-yl)oxy)azetidin-1-yl)phenyl)methanone] | 15
9 | Cc1ccc2oc(N3CCN(C(=O)c4ccc(N5CC(O[C@H](C)C(F)(F)F)C5)cc4)CC3)nc2n1 [Example 201, (R)-(4-(5-methyloxazolo[4,5-b]pyridin-2-yl)piperazin-1-yl)(4-(3-((1,1,1-trifluoropropan-2-yl)oxy)azetidin-1-yl)phenyl)methanone] | 38
10 | O=C(c1ccc(N2CCC3(C2)CC3(F)F)cc1)N1CCN(c2nc3nc(Cl)ccc3o2)CC1 (stereo not shown) [Example 202, [4-(5-chloro-[1,3]oxazolo[4,5-b]pyridin-2-yl)piperazin-1-yl]-[4-(2,2-difluoro-5-azaspiro[2.4]heptan-5-yl)phenyl]methanone] | 14
11 | O=C(c1ccc(N2CC3(CCC3(F)F)C2)cc1)N1CCN(c2nc3nc(Cl)ccc3o2)CC1 [Example 203, [4-(5-chloro-[1,3]oxazolo[4,5-b]pyridin-2-yl)piperazin-1-yl]-[4-(7,7-difluoro-2-azaspiro[3.3]heptan-2-yl)phenyl]methanone] | 35
12 | CC(C)(C)OC1CN(c2ccc(C(=O)N3CCN(c4nc5nc(Cl)ccc5o4)CC3)cc2)C1 [Example 204, (4-(3-(tert-butoxy)azetidin-1-yl)phenyl)(4-(5-chlorooxazolo[4,5-b]pyridin-2-yl)piperazin-1-yl)methanone] | 18
13 | CCC(C)(C)OC1CN(c2ccc(C(=O)N3CCN(c4nc5nc(Cl)ccc5o4)CC3)cc2)C1 [Example 205, (4-(5-chlorooxazolo[4,5-b]pyridin-2-yl)piperazin-1-yl)(4-(3-(tert-pentyloxy)azetidin-1-yl)phenyl)methanone] | 5
